Measurements as given in patent publication US20070161592A1, “Method of treating fear” (priority 2005, published 2007).

Legend:
[1] = tested on: NMDAR-mediated currents in the ACC; assay: NMDAR-mediated EPSCs in the ACC; type: cell-based, mouse
Procedure: Coronal brain slices ([…]) from 6-8-week-old C57BL/6 mice, containing ACC or hippocampus, were prepared using standard methods (Wei et al., 2001). Slices were transferred to a submerged recovery chamber containing oxygenated (95% O2 and 5% CO2) artificial cerebrospinal fluid (ACSF) (in mM: 124 NaCl, 4.4 KCl, 2 CaCl2, 1 MgSO4, 25 NaHCO3, 1 NaH2PO4, 10 glucose) at room temperature for at least 1 h.
Experiments were performed in a recording chamber on the stage of an Axioskop 2FS microscope with infrared DIC optics for visualizing whole-cell patch clamp recordings. EPSCs were recorded from layer II-III neurons using an Axon 200B amplifier (Axon Instruments, CA) and stimulations were delivered using a bipolar tungsten stimulating electrode placed in layer V of the ACC. In hippocampal slices, EPSCs were evoked by stimulating the Schaffer collateral-commissural pathway. EPSCs were induced by repetitive stimulations at 0.02 Hz and neurons were voltage clamped at −70 mV. The recording pipettes (3-5 MΩ) were filled with solution containing (mM) 145 K-gluconate, 5 NaCl, 1 MgCl2, 0.2 EGTA, 10 HEPES, 2 Mg-ATP, and 0.1 Na3-GTP (adjusted to pH 7.2 with KOH). After obtaining stable EPSCs for 10 min, three kinds of LTP induction paradigms were used within 12 min after establishing the whole-cell configuration to prevent wash out effect on LTP induction (Tsvetkov et al., 2002). The first protocol involved paired presynaptic 80 pulses at 2 Hz with postsynaptic depolarization at +30 mV (referred to as pairing training). The second involved paired 3 presynaptic stimuli that caused 3 EPSPs (10 ms ahead) with 3 postsynaptic APs at 30 Hz, paired 15 times every 5 s (named as EPSPs-APs protocol). The third involved theta-burst stimulation (5 trains of burst with 4 pulses at 100 Hz, at 200 ms interval; repeated 4 times at intervals of 10 s; named as TBS). The NMDAR-mediated component of EPSCs was pharmacologically isolated in Mg^2+-free ACSF containing: CNQX (20 μM), glycine (1 μM) and picrotoxin (100 μM). The patch electrodes contained (in mM) 102 cesium gluconate, 5 TEA-chloride, 3.7 NaCl, 11 BAPTA, 0.2 EGTA, 20 HEPES, 2 MgATP, 0.3 NaGTP, and 5 QX-314 chloride (adjusted to pH 7.2 with CsOH). Neurons were voltage clamped at −60 mV and NMDARs-mediated EPSCs were evoked at 0.05 Hz. Picrotoxin (100 μM) was always present to block GABAA receptor-mediated inhibitory synaptic currents. The access resistance was 15-30 MΩ and was monitored throughout the experiment. Data were discarded if access resistance changed by more than 15% during an experiment. Results are expressed as means±SEM. Statistical comparisons were performed using the Student t-test.
One possible mechanism is that NR2B-containing receptors may contribute more to total NMDA currents in ACC synapses than in hippocampal synapses. […] Application of 0.1 μM or 0.4 μM NVP-AAM077 depressed total NMDAR-mediated currents by 59.0±4.3% (n=5) and 63.2±1.7% (n=6) in the ACC respectively (FIG. 5). On the other hand, application of 0.3 μM or 3 μM Ro25-6981 attenuated total NMDAR-mediated currents by 18.0±1.9% (n=5) and 18.1±3.4% (n=7) in the ACC respectively, showing that 0.3 μM Ro25-6981 was sufficient to block the NR2B-mediated currents (FIG. 5). This experiment was repeated in hippocampal CA1 neurons. […] However, unlike in the ACC, application of 0.3 μM Ro25-6981 alone potentiated, rather than blocked, total NMDAR-mediated currents by 51.3±16.4% in the hippocampus (FIG. 5).
The relative percentages of NR2A- and NR2B-mediated currents were determined by applying specific antagonists, NVP-AAM077 (0.4 μM) and Ro25-6981 (0.3 μM). The concentrations used here were based on the results from FIG. 5 and a recent study performed in the hippocampus (Liu et al., 2004). Application of NVP-AAMO77 depressed total NMDAR-mediated currents by 63.2±1.7% and the addition of Ro25-6981 to the same neuron further reduced currents by 13.7±1.4% (n=6) in the ACC (FIG. 6). […]

mice = assay: Locomotor activity in the open field; type: in vivo, mouse; settings: bilateral ACC microinjection, recorded 15 minutes or one day after injection
Procedure: NR2B subunit inhibition in adult mice was examined to determine whether this impairs the formation of contextual fear memory. Three days after bilateral siRNA electroporation, mice were trained (or conditioned) and then tested for contextual fear memory by assessing freezing behavior in the same environmental context after 24 hours. There was no difference in baseline freezing or in freezing immediately following the shock/tone pairing between groups; however, there was a significant difference between groups when tested in the contextual environment one day later (n=8 for EGFP only; n=10 for control siRNA; n=8 for shock only; n=11 for NR2B siRNA; one-way ANOVA, p=0.005; FIG. 8C). […] Since the activation of NR2B was suppressed throughout the training and memory test, the roles of NR2B during the acquisition and retrieval of fear memory cannot be distinguished. Recently, electric stimulation of the ACC was reported to induce fear memory one and three days after stimulation (Tang et al., 2005), which implies that the ACC may be involved in the acquisition of fear memory. To directly address this issue, the effect of NR2B blockade using Ro25-6981 was examined. […] In order to rule out any locomotor side-effects, locomotor activity in the open field was tested after bilateral ACC microinjection of Ro25-6981 (n=4) or vehicle (n=4).

With `C[C@@H](CN1CCC(Cc2ccccc2)CC1)[C@@H](O)c1ccc(O)cc1` [Ro25-6981] the “further reduction of total NMDAR-mediated currents” value ([1]; 0.3 μM Ro25-6981 added to the same neuron after 0.4 μM NVP-AAM077) was 13.7±1.4%, the “depression of total NMDAR-mediated currents” value ([1]; 0.3 μM, applied alone or first) was 18.0±1.9% and the “depression of total NMDAR-mediated currents” value ([1]; 3 μM) was 18.1±3.4%. For the same compound, the “effect on total NMDAR-mediated currents” value ([1]; bath application of different doses, FIG. 5) was “depressed” and the “locomotor activity in the open field” value (mice) was “no difference in locomotor activity”.
